The text below walks through data of patent publication US12655160B2, “KRAS G12D inhibitors” (Mirati Therapeutics, Inc., priority 2020, dated 2026).

Molecules are shown by their SMILES. Structures can show the parent of a compound that is named as a salt.

The target of the test is KRas G12D (Homo sapiens, UniProt P01116, G12D). The test can be described thus: KRas G12D Binding Assay (TR-FRET displacement of labeled tracer). Further details: corresponding to amino acids 1:169, produced at Array BioPharma Inc; biotin (biotinylated). As to conditions: TR-FRET displacement of Cy5 labelled tracer, Biotinylated GDP-loaded KRAS G12D (amino acids 1:169), 60 minute incubation at 22° C. On the procedure: This Example illustrates that exemplary compounds of the present invention bind to KRas G12D and are capable of displacing a labeled tracer ligand occupying the KRas G12D binding site. The ability of a compound to bind to KRAS G12D was measured using a TR-FRET displacement assay. Biotinylated GDP-loaded recombinant human KRAS G12D (corresponding to amino acids 1:169, produced at Array BioPharma Inc.) was incubated with a custom-made Cy5 labelled tracer, europium labelled streptavidin and compound (2% DMSO final) in buffer (50 mM HEPES [pH 7.5], 5 mM MgCl2, 0.005% Tween-20 & 1 mM DTT). After a 60 minute incubation at 22° C., the reaction was measured using a PerkinElmer EnVision multimode plate reader via TR-FRET dual wavelength detection, and the percent of control (POC) calculated using a ratiometric emission factor. […] The POC values were fit to a 4-parameter logistic curve and the IC50 value was determined as the concentration where the curve crosses 50 POC.
Sequence of KRas G12D (P01116 1-169 isoform P01116-2 G12D): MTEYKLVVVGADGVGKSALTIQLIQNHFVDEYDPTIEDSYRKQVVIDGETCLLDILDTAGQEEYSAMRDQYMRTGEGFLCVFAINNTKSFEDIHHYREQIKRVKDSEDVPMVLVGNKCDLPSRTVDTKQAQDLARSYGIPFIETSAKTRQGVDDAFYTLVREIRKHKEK

`CCc1cccc2cc(O)cc(-c3ncc4c(NCC5(N(C)C)CCCC5)nc(OC[C@@]56CCCN5C[C@H](F)C6)nc4c3F)c12` [Example 34, 4-(4-(((1-(dimethylamino)cyclopentyl)methyl)amino)-8-fluoro-2-(((2R,7aS)-2-fluorotetrahydro-1H-pyrrolizin-7a(5H)-yl)methoxy)pyrido[4,3-d]pyrimidin-7-yl)-5-ethylnaphthalen-2-ol dihydrochloride]: the 50% inhibitory concentration (IC50) (as a rule, the concentration needed to halve the response being measured) was 1.1 nM.
Take `CN1CCC[C@@H]1COc1nc(NCC2(N(C)C)CCC2)c2cnc(-c3cc(O)cc4ccccc34)c(F)c2n1` [Example 32]: the IC50 is 381 nM.
`CN(C)C1(CNc2nc(OC[C@@]34CCCN3C[C@H](F)C4)nc3c(F)c(-c4cccc5cccc(C(F)(F)F)c45)ncc23)CCC1` [Example 3, N-((1-(dimethylamino)cyclobutyl)methyl)-8-fluoro-2-(((2R,7aS)-2-fluorotetrahydro-1H-pyrrolizin-7a(5H)-yl)methoxy)-7-(8-(trifluoromethyl)naphthalen-1-yl)pyrido[4,3-d]pyrimidin-4-amine] showed an IC50 of 239 nM.
The same measure for `CC(C)(O)CNc1nc(OC[C@@]23CCCN2C[C@H](F)C3)nc2c(F)c(-c3cccc4cccc(Cl)c34)ncc12` [Example 15, 1-((7-(8-chloronaphthalen-1-yl)-8-fluoro-2-(((2R,7aS)-2-fluorotetrahydro-1H-pyrrolizin-7a(5H)-yl)methoxy)pyrido[4,3-d]pyrimidin-4-yl)amino)-2-methylpropan-2-ol]: 3150 nM; for `CN(C)C1(CNc2nc(OCCc3nccn3C)nc3c(F)c(-c4cc(O)cc5ccccc45)ncc23)CCC1` [Example 31]: 857 nM; for `CCc1cccc2cc(O)cc(-c3ncc4c(N(C)CC5(N(C)C)CCC5)nc(OC[C@@]56CCCN5C[C@H](F)C6)nc4c3F)c12` [Example 37, 4-(4-(((1-(dimethylamino)cyclobutyl)methyl)(methyl)amino)-8-fluoro-2-(((2R,7aS)-2-fluorotetrahydro-1H-pyrrolizin-7a(5H)-yl)methoxy)pyrido[4,3-d]pyrimidin-7-yl)-5-ethylnaphthalen-2-ol dihydrochloride]: 26.1 nM.
`Cc1cc2[nH]ncc2c(-c2ncc3c(NCC4(N(C)C)CCC4)nc(OC[C@@]45CCCN4C[C@H](F)C5)nc3c2F)c1Cl` [Example 12, 7-(5-chloro-6-methyl-1H-indazol-4-yl)-N-((1-(dimethylamino)cyclobutyl)methyl)-8-fluoro-2-(((2R,7aS)-2-fluorotetrahydro-1H-pyrrolizin-7a(5H)-yl)methoxy)pyrido[4,3-d]pyrimidin-4-amine bis(2,2,2-trifluoroacetate)] came in with an IC50 of 100 nM.
In turn, `CN(C)CCNc1nc(OC[C@@]23CCCN2C[C@H](F)C3)nc2c(F)c(-c3cc(O)cc4ccccc34)ncc12` (racemic) [Example 39, 4-(4-((2-(dimethylamino)ethyl)amino)-8-fluoro-2-(((2S,7aR)-2-fluorotetrahydro-1H-pyrrolizin-7a(5H)-yl)methoxy)pyrido[4,3-d]pyrimidin-7-yl)naphthalen-2-ol bis(2,2,2-trifluoroacetate)] returned an IC50 of 521 nM.
Consider `Oc1cc(-c2ncc3c(NCC4(O)CNC4)nc(OC[C@@]45CCCN4C[C@H](F)C5)nc3c2F)c2ccccc2c1` [Example 38, 3-(((8-fluoro-2-(((2R,7aS)-2-fluorotetrahydro-1H-pyrrolizin-7a(5H)-yl)methoxy)-7-(3-hydroxynaphthalen-1-yl)pyrido[4,3-d]pyrimidin-4-yl)amino)methyl)azetidin-3-ol bis(2,2,2-trifluoroacetate)], for which the IC50 is 389 nM.
Consider `CNC1(CNc2nc(OCC34CCCN3CCC4)nc3c(F)c(-c4cccc5cccc(F)c45)ncc23)CCC1` [Example 59, 8-fluoro-7-(8-fluoronaphthalen-1-yl)-2-((hexahydro-1H-pyrrolizin-7a-yl)methoxy)-N-((1-(methylamino)cyclobutyl)methyl)pyrido[4,3-d]pyrimidin-4-amine], for which the IC50 stood at 1030 nM.
In turn, `Oc1cc(-c2ncc3c(NC[C@]45C[C@H]4CCN5)nc(OC[C@@]45CCCN4C[C@H](F)C5)nc3c2F)c2ccccc2c1` [Example 40, 4-(4-((((1S,5R)-2-azabicyclo[3.1.0]hexan-1-yl)methyl)amino)-8-fluoro-2-(((2R,7aS)-2-fluorotetrahydro-1H-pyrrolizin-7a(5H)-yl)methoxy)pyrido[4,3-d]pyrimidin-7-yl)naphthalen-2-ol bis(2,2,2-trifluoroacetate)] displayed an IC50 of 5150 nM.
As for `CC(C)c1c(Cl)cccc1-c1ncc2c(NCC3(N(C)C)CCC3)nc(OC[C@@]34CCCN3C[C@H](F)C4)nc2c1F` [Example 48, 7-(3-chloro-2-isopropylphenyl)-N-((1-(dimethylamino)cyclobutyl)methyl)-8-fluoro-2-(((2R,7aS)-2-fluorotetrahydro-1H-pyrrolizin-7a(5H)-yl)methoxy)pyrido[4,3-d]pyrimidin-4-amine], the IC50 was 1080 nM.
Consider `CN(C)C1(CNc2nc(OCC34CCCN3CCC4)nc3c(F)c(-c4cccc5cccc(F)c45)ncc23)CCOCC1` [Example 53, N-((4-(dimethylamino)tetrahydro-2H-pyran-4-yl)methyl)-8-fluoro-7-(8-fluoronaphthalen-1-yl)-2-((hexahydro-1H-pyrrolizin-7a-yl)methoxy)pyrido[4,3-d]pyrimidin-4-amine], for which the IC50 was determined as 7160 nM.
`C=C(C)c1cccc2cccc(-c3ncc4c(NCC5(N(C)C)CCC5)nc(OCC56CCCN5C[C@H](F)C6)nc4c3F)c12` (mixture of isomers) [Example 24, N-((1-(dimethylamino)cyclobutyl)methyl)-8-fluoro-2-(((2S,7aR)-2-fluorotetrahydro-1H-pyrrolizin-7a(5H)-yl)methoxy)-7-(8-(prop-1-en-2-yl)naphthalen-1-yl)pyrido[4,3-d]pyrimidin-4-amine] returned an IC50 of 954 nM.
The same measure for `CN(C)C1(CNc2nc(OC[C@@]34CCCN3C[C@H](F)C4)nc3c(F)c(-c4cccc5cccc(Cl)c45)ncc23)CCC1` [Example 23, 7-(8-chloronaphthalen-1-yl)-N-((1-(dimethylamino)cyclobutyl)methyl)-8-fluoro-2-(((2R,7aS)-2-fluorotetrahydro-1H-pyrrolizin-7a(5H)-yl)methoxy)pyrido[4,3-d]pyrimidin-4-amine]: 583 nM; for `CCc1cccc2cc(O)cc(-c3ncc4c(NCC5(N(C)C)CCC5)nc(OC[C@@]56CCCN5C[C@H](F)C6)nc4c3F)c12` [Example 33, 4-(4-(((1-(dimethylamino)cyclobutyl)methyl)amino)-8-fluoro-2-(((2R,7aS)-2-fluorotetrahydro-1H-pyrrolizin-7a(5H)-yl)methoxy)pyrido[4,3-d]pyrimidin-7-yl)-5-ethylnaphthalen-2-ol dihydrochloride]: 0.9 nM.
Compound `CN1CCC[C@H]1COc1nc(NCC2(N(C)C)CCC2)c2cnc(-c3cc(O)cc4ccccc34)c(F)c2n1` [Example 11, (S)-4-(4-(((1-(dimethylamino)cyclobutyl)methyl)amino)-8-fluoro-2-((1-methylpyrrolidin-2-yl)methoxy)pyrido[4,3-d]pyrimidin-7-yl)naphthalen-2-ol bis(2,2,2-trifluoroacetate)] had an IC50 of 98 nM.
`CC(C)c1cccc2cccc(-c3ncc4c(NCC5(N(C)C)CCC5)nc(OCC56CCCN5C[C@H](F)C6)nc4c3F)c12` (mixture of isomers) [Example 25, N-((1-(dimethylamino)cyclobutyl)methyl)-8-fluoro-2-(((2S,7aR)-2-fluorotetrahydro-1H-pyrrolizin-7a(5H)-yl)methoxy)-7-(8-isopropylnaphthalen-1-yl)pyrido[4,3-d]pyrimidin-4-amine] registered an IC50 of 1640 nM.
On to `CN(C)C(C)(C)CNc1nc(OC[C@]23CCCN2C[C@@H](F)C3)nc2c(F)c(-c3cc(O)cc4ccccc34)ncc12` [Example 42, 4-(4-((2-(dimethylamino)-2-methylpropyl)amino)-8-fluoro-2-(((2S,7aR)-2-fluorotetrahydro-1H-pyrrolizin-7a(5H)-yl)methoxy)pyrido[4,3-d]pyrimidin-7-yl)naphthalen-2-ol bis(2,2,2-trifluoroacetate)], for which the half-maximal inhibitory concentration (IC50) worked out at 211 nM.
In turn, `CC(C)c1c(Cl)cccc1-c1ncc2c(NCC3(N(C)C)CCC3)nc(OCC34CCCN3CCC4)nc2c1F` [Example 47, 7-(3-chloro-2-isopropylphenyl)-N-((1-(dimethylamino)cyclobutyl)methyl)-8-fluoro-2-((tetrahydro-1H-pyrrolizin-7a(5H)-yl)methoxy)pyrido[4,3-d]pyrimidin-4-amine] showed an IC50 of 513 nM.
As to `CCc1c(F)ccc2cccc(-c3ncc4c(NCC5(N(C)C)CCC5)nc(OCC56CCCN5CCC6)nc4c3F)c12` [Example 35, N-((1-(dimethylamino)cyclobutyl)methyl)-7-(8-ethyl-7-fluoronaphthalen-1-yl)-8-fluoro-2-((tetrahydro-1H-pyrrolizin-7a(5H)-yl)methoxy)pyrido[4,3-d]pyrimidin-4-amine bis(2,2,2-trifluoroacetate)], the IC50 stood at 30.4 nM.
The same measure for `CN(CC1(N(C)C)CCC1)c1nc(OC[C@@]23CCCN2C[C@H](F)C3)nc2c(F)c(-c3cc(O)cc4ccccc34)ncc12` [Example 28]: 609 nM.
